# Tests used:
# [1] = molecular target: T1, steroid sulfatase (Homo sapiens, UniProt P08842); test: Assay using human skin homogenate (DHEAS cleavage); assay type: biochemical; parameters: Frozen specimens of human cadaver skin (about 100 mg per sample) are minced into small pieces; from tissue; host or cells: human cadaver skin, minced, in Triton X-100 buffer; settings: human cadaver skin homogenate; [3H]DHEAS substrate; 18 hrs at 37° C.
# T1 sequence (P08842 22-583): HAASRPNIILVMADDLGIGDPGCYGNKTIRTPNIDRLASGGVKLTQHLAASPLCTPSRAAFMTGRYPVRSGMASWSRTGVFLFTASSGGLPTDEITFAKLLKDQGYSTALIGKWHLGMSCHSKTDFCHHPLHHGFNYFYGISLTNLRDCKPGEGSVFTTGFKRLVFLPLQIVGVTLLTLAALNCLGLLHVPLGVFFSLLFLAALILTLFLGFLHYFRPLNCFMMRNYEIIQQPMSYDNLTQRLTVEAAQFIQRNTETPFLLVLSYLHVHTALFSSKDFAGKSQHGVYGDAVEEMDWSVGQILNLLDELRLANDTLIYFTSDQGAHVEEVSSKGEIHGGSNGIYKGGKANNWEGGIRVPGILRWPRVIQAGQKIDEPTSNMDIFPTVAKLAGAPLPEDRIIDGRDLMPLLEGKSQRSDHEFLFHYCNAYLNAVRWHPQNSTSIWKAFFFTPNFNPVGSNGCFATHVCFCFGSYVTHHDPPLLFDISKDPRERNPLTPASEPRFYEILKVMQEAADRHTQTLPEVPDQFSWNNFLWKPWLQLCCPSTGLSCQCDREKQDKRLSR
# Procedure: Frozen specimens of human cadaver skin (about 100 mg per sample) are minced into small pieces (about 1×1 mm) using sharp scissors. The pieces obtained are suspended in ten volumes (w/w) of buffer (20 mM Tris-HCl, pH 7.5), containing 0.1% Triton X-100. Test compounds (e.g. compounds of the present invention or compounds for use in the present invention) are added at graded concentrations from stock solutions in ethanol or DMSO. Second, DHEAS as the substrate is added (1 μC/ml [^3H]DHEAS, specific activity: about 60 Cl/mmol, and 20 μM unlabeled DHEAS). Samples are incubated for 18 hrs at 37° C. At the end of the incubation period, 50 μl of 1 M Tris, pH 10.4 and 3 ml of toluene are added. A 1-ml aliquot of the organic phase is removed and subjected to liquid scintillation counting. The determined dpm-values in the aliquots are converted to nmol of DHEA cleaved per g of skin per hour.
# [2] = molecular target: T1, steroid sulfatase; test: Assay of human steroid sulfatase (4-methylumbelliferyl sulfate cleavage, fluorescence); assay type: biochemical; parameters: Human placenta is obtained freshly after delivery and stripped of membranes and connective tissues; from tissue; host or cells: human placenta (microsomes, Triton X-100 extract, chromatographically purified); settings: purified human placental steroid sulfatase; 4-methylumbelliferyl sulfate substrate; 37° C., 1 hour
# Procedure: Human placenta is obtained freshly after delivery and stripped of membranes and connective tissues. For storage, the material is frozen at −70° C. After thawing, all further steps are carried out at 4° C., while pH values are adjusted at 20° C. 400 g of the tissue is homogenized in 1.2 l of buffer A (50 mM Tris-HCl, pH 7.4, 0.25 M sucrose). The homogenate obtained is centrifuged at 10,000×g for 45 minutes. The supernatant is set aside and the pellet obtained is re-homogenized in 500 ml of buffer A. After centrifugation, the two supernatants obtained are combined and subjected to ultracentrifugation (100,000×g, 1 hour). The pellet obtained is resuspended in buffer A and centrifugation is repeated. […]
# It is known that purified human steroid sulfatase not only is capable to cleave steroid sulfates, but also readily cleaves aryl sulfates such as 4-methylumbelliferyl sulfate which is used in the present test system as an activity indicator. […]
# Plates are incubated at 37° C. for 1 hour. […] Fluorescence intensity is determined in a Titertek Fluoroskan II instrument with λex=355 nm and λem=460 nm. […]
# [formula] wherein I100 is the intensity observed in the absence of inhibitor and s is a slope factor. Estrone sulfamate is used as a reference compound and its IC50 value is determined in parallel to all other test compounds. […]
Compound,IC50 [1],IC50 [2]
"2-[2-(3,5-Bis-trifluoromethyl-benzenesulfonylamino)-6,7-dihydro-4H-thiazolo-[5,4-c]pyridin-yl]4-trifluoromethyl-benzamide [Example 1]",160 nM,
CC12CCC3c4ccc(OS(N)(=O)=O)cc4CCC3C1CCC2=O (centres unmarked) [estrone sulfamate],,~60 nM

# Reference: US7291734B2, “N-sulfonylaminothiazole” (Novartis AG, priority 2002, dated 2007)
